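Grown in 96-well plates, cells were treated for 48 hours with each compound at five concentrations. Insufficient inhibition: endpoint recorded as highest concentration tested. GI50 is the concentration that inhibits growth by half.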 Calls of active or inactive are those of the source. No stated cut-off is given here; in the data, active = GI50 up to about 1.1 µM and inactive = higher.
Columns and labels:
Assay in all cases: NCI tumour cell line growth inhibition, 48 h
SF-539 = test system: SF-539
OVCAR-3 = test system: OVCAR-3
Malme-3M = test system: Malme-3M
U-251 = test system: U-251
SW-620 = test system: SW-620
HCT-15 = test system: HCT-15
NCI-H522 = test system: NCI-H522
CAKI-1 = test system: CAKI-1
MDA-MB-435 = test system: MDA-MB-435
CCRF-CEM = test system: CCRF-CEM
SK-MEL-28 = test system: SK-MEL-28
HT-29 = test system: HT-29
HCC 2998 = test system: HCC 2998
COLO 205 = test system: COLO 205
SF-268 = test system: SF-268
HOP-62 = test system: HOP-62
SK-MEL-2 = test system: SK-MEL-2
OVCAR-8 = test system: OVCAR-8
HOP-92 = test system: HOP-92

SMILES | GI50 (SF-539) | GI50 (OVCAR-3) | GI50 (Malme-3M) | GI50 (U-251) | GI50 (SW-620) | GI50 (HCT-15) | GI50 (NCI-H522) | GI50 (CAKI-1) | GI50 (MDA-MB-435) | GI50 (CCRF-CEM) | GI50 (SK-MEL-28) | GI50 (HT-29) | GI50 (HCC 2998) | GI50 (COLO 205) | GI50 (SF-268) | GI50 (HOP-62) | GI50 (SK-MEL-2) | GI50 (OVCAR-8) | GI50 (HOP-92)
C[n+]1c2ccc(Cl)cc2nc2cc(-c3ccccc3)ccc21 | 15.8 µM (inactive) | 2.03 µM (inactive) | 19.4 µM (inactive) | 5.21 µM (inactive) | 4.7 µM (inactive) | 7.76 µM | 16 µM (inactive) | 16.4 µM (inactive) | 1.77 µM (inactive) | 60.7 µM (inactive) | 20.1 µM (inactive) | 2.9 µM (inactive) | 4.95 µM (inactive) | 3.58 µM (inactive) | 14.7 µM (inactive) | 23 µM (inactive) | 19.8 µM (inactive) | 3.67 µM (inactive) | 
COc1cc2c(cc1OC)C1=Cc3cc(OC)c(OC)cc3C(C)N1C=C2 (stereo not given) | > 100 µM (inactive) | 32.1 µM (inactive) | > 100 µM (inactive) | 37.2 µM (inactive) | 84.5 µM (inactive) | 69.7 µM |  |  | 41.8 µM (inactive) | 27.3 µM (inactive) | 63.2 µM (inactive) | 74.3 µM (inactive) | > 100 µM (inactive) | 22 µM (inactive) | 21.5 µM (inactive) | 44.2 µM (inactive) |  | 52 µM (inactive) | > 100 µM (inactive)
COc1ccc(CC2Cc3ccccc3CC(=O)N2)cc1OC (stereo not given) | > 100 µM (inactive) | 97.3 µM (inactive) | > 100 µM (inactive) | > 100 µM (inactive) | > 100 µM (inactive) | > 100 µM |  | > 100 µM (inactive) | 55.8 µM (inactive) | 28.1 µM (inactive) | > 100 µM (inactive) | > 100 µM (inactive) | > 100 µM (inactive) | > 100 µM (inactive) |  | > 100 µM (inactive) | > 100 µM (inactive) | 75 µM (inactive) | 89.5 µM (inactive)
CC(C)(C)OC/C=C(\Br)CO | > 100 µM (inactive) | > 100 µM (inactive) | > 100 µM (inactive) | > 100 µM (inactive) | > 100 µM (inactive) | > 100 µM |  | > 100 µM (inactive) | > 100 µM (inactive) | > 100 µM (inactive) | > 100 µM (inactive) | > 100 µM (inactive) | > 100 µM (inactive) | > 100 µM (inactive) | > 100 µM (inactive) | > 100 µM (inactive) | > 100 µM (inactive) | > 100 µM (inactive) | 
CCOC(=O)C1Oc2ccc([N+](=O)[O-])cc2C1(C)O (stereo not given) | > 100 µM (inactive) | > 100 µM (inactive) | > 100 µM (inactive) | > 100 µM (inactive) | > 100 µM (inactive) | > 100 µM | > 100 µM (inactive) |  |  | > 100 µM (inactive) | > 100 µM (inactive) | > 100 µM (inactive) | > 100 µM (inactive) | > 100 µM (inactive) | > 100 µM (inactive) | > 100 µM (inactive) | > 100 µM (inactive) | > 100 µM (inactive) | > 100 µM (inactive)
CCOC(=O)c1cc(NC(=O)N(CCC#N)CCN(C(=O)N[C@@H](Cc2ccccc2)C(=O)N[C@@H](CC(C)C)C(=O)NC)c2ccccc2)ccc1OC | 31.3 µM (inactive) | 40.9 µM (inactive) | 29.4 µM (inactive) | > 10 µM (inactive) | > 10 µM (inactive) | 57.4 µM |  | > 100 µM (inactive) | 30.9 µM (inactive) | 89.9 µM (inactive) | 28.9 µM (inactive) |  | 35.1 µM (inactive) | > 100 µM (inactive) | 48.5 µM (inactive) | 41.8 µM (inactive) | 38.2 µM (inactive) | 84.9 µM (inactive) | 34.3 µM (inactive)
Cc1ccccc1-c1nc2c(N)nc(N)nc2nc1N | 22.5 µM (inactive) | > 100 µM (inactive) |  | 4.33 µM (inactive) | 4.86 µM (inactive) | 4.15 µM | 22.6 µM (inactive) | 9.35 µM (inactive) | 5.36 µM (inactive) | 4.74 µM (inactive) | 67.9 µM (inactive) | > 100 µM (inactive) | 25.2 µM (inactive) | 25.5 µM (inactive) | 8.38 µM (inactive) | 25.9 µM (inactive) | > 100 µM (inactive) | 14.1 µM (inactive) | 
OB1OCc2ccccc21 [BENZOXABOROLE] | 25.1 µM (inactive) | 60.4 µM (inactive) | > 100 µM (inactive) | 62.7 µM (inactive) | 30.7 µM (inactive) | 24.7 µM |  | 34.7 µM (inactive) | 35.9 µM (inactive) | 18 µM (inactive) | 21.6 µM (inactive) | 26.7 µM (inactive) |  | 33.7 µM (inactive) | 42.2 µM (inactive) | 26.7 µM (inactive) | 37.2 µM (inactive) | 31.1 µM (inactive) | 
